Measured values from patent US20200316087A1, “NOVEL COMBINATION THERAPY FOR ANXIETY DISORDERS, EPILEPSY, AND PAIN” (priority 2017, published 2020).

Key:
[1] = system: punished licking (anxiety); test: Vogel conflict test; assay type: in vivo; details: rats
Procedure: Experiments are conducted as described in the protocol of Alt et al. (Neuropharmacology 2007, 52, 1482-1487). Experimentally-naive adult male Sprague-Dawley rats (Harlan Industries, Indianapolis, Ind.), weighing between 200 and 300 g, are used as subjects. The rats are housed in Plexiglas cages (4 per cage) and given free access to Lab Diet #5001 for rodents (PMI Nutrition International Inc., St. Louis, Mo.). Water is withheld for 20-24 hours prior to the first training session. A 12-hr light/dark cycle is maintained, and all experimental sessions are conducted during the light phase of the cycle at about the same time each day.
The experiments are conducted using operant behavior test chambers ENV-007 (Med Associates Inc., Georgia, Vt., USA), 30.5×24.1×29.2 cm. […] All events are controlled and licking data is recorded by a Compaq computer running MED-PC Version IV (Med Associates Inc., Georgia, Vt., USA).
Rats are put into the chamber on day 1 and 2 with white noise and the houselight illuminated, and allowed to drink for a total of six minutes after the first lick is made. The six minutes is broken into two components, the first three minutes is recorded as the unpunished component and the second three minutes are recorded as the punished component. […]
The mean number of licks for both the unpunished and punished components are analyzed. […]

[2] = Rat inverted screen test (motor impairment); details: male, Sprague-Dawley, rat, in vivo
[3] = system: human (α2), or rat (α1, α3, α5, γ2L, β3) GABAA receptor subunits; test: Whole-cell patch-clamp GABA current responses in transfected HEK-293T cells; assay type: cell-based; details: GABA EC3-5, drug concentration 100 nM
Procedure: Human […] (HEK-293T) were transiently transfected with full-length cDNAs encoding human (α2), or rat (α1, α3, α5, γ2L, β3) GABAA receptor subunits using calcium phosphate precipitation. Positively transfected cells were isolated by utilizing co-transfection of a plasmid encoding a surface antibody (pHook™-1, Invitrogen). 20-52 hours following transfection, cells were mixed with magnetic beads coated with antigen specific for the pHook antibody, isolated with a magnetic stand, and then plated onto coverslips and used for patch-clamp recordings 18-28 hours later.
Current responses to GABA were recorded in the whole-cell configuration, with cells voltage-clamped at −50 mV. The bath solution contained (in mM): 142 NaCl, 8.1 KCl, 6 MgCl2, 1 CaCl2), and 10 HEPES (4-(2-hydroxyethyl)-1-piperazineethanesulfonic acid) with pH=7.4 and osmolarity adjusted to 295-305 mOsm. The electrode (internal) solution consisted of (in mM); 153 KCl, 1 MgCl2, 5 K-EGTA (ethylene glycol-bis (β-aminoethyl ether N,N,N′N′-tetraacetate)), and 10 HEPES with pH=7.4 and osmolarity adjusted to 295-305 mOsm. […] Currents were recorded with an Axon 200B (Foster City, Calif.) patch clamp amplifier. […] Data were analyzed by two-way ANOVA followed by post-hoc Tukey's multiple comparison test. […]

Row | SMILES | anxiolytic-like efficacy in Vogel conflict test [1] | MTD at 60 seconds ([2]; intraperitoneal) [mg/kg] | selectivity for α2 and α3 over α1 [3] | ED50 at 30 min ([2]; ip) [mg/kg]
1 | C#Cc1ccc2c(c1)C(c1ccccc1)=NCc1c(-c3cnco3)ncn1-2 [KRM-II-82, 5-(8-ethynyl-6-phenyl-4H-benzo[f]imidazo[1,5-a][1,4]diazepin-3-yl)oxazole] | did not produce anxiolytic-like efficacy | 150 |  | 
2 | C#Cc1ccc2c(c1)C(c1ccccn1)=NCc1c(-c3cnco3)ncn1-2 [KRM-II-81, 5-(8-ethynyl-6-(pyridin-2-yl)-4H-benzo[f]imidazo[1,5-a][1,4]diazepin-3-yl)oxazole] |  |  | selective for α2 and α 3 over α1 | 121
